Converted amounts (≈) assume the structure as drawn.
Columns and labels:
[1] = Acute toxicity (LD50 mouse); settings: in vivo
[2] = Effect on blood pressure; format: in vivo
[3] = system: intestine of the guinea pig (BaCl2-spasmus); assay: Spasmolytic effect, MAGNUS intestine of the guinea pig (against BaCl2-spasmus); settings: Cavia porcellus, read-out: ED50 spasmolytic effect
Source text: 2.1 MAGNUS intestine of the guinea pig (against BaCl2 -spasmus)

[4] = system: A.femoralis; assay: Increase in peripheral vasodilation (A.femoralis), narcotized dog, planimetric evaluation; format: in vivo
Source text: 3.2 Increase in peripheral vasodilation (A.femoralis) in the case of the narcotized dog (with planimetric evaluation taking into account the duration of the effect).

[5] = system: coronary; assay: Increase in coronary vasodilation (Bretschneider catheter), narcotized dog, planimetric evaluation; format: in vivo
Source text: 3.3. Increase in coronary vasodilation (Bretschneider catheter) in the case of a narcotized dog (with planimetric evaluation taking into account the duration of the effect).

[6] = Acute toxicity (LD50 rat); settings: in vivo, iv
Source text: +according to KOMLOS and PETOCZ, 20 Arzneimittel-Forschung 1338 (1970)

[7] = system: BaCl2-spasmus; assay: Spasmolysis in situ of a guinea pig modified according to BROCK (against BaCl2-spasmus); format: in vivo
Source text: 2.2 Spasmolysis in situ of a guinea pig modified according to BROCK (against BaCl2 -spasmus)

[8] = system: mouse; settings: according to KOMLOS and PETOCZ (1970); cited from earlier work
[9] = system: rat; settings: according to KOMLOS and PETOCZ (1970), cited from earlier work

SMILES	LD50 ([1]; iv, read-out: LD50 mouse i.v.) [mg/kg]	LD50 ([1]; po, read-out: LD50 mouse p.o.) [mg/kg]	Effect on blood pressure ([2]; 3.16 mg/kg i.v.)	Effect on blood pressure ([2]; 5.6 mg/kg i.v.)	Effect on blood pressure ([2]; 10.0 mg/kg i.v.)	IC50 [3] [µg/mL]	Increase in peripheral vasodilation (A.femoralis) ([4]; 3.16 mg/kg i.v.)	Increase in peripheral vasodilation (A.femoralis) ([4]; 5.6 mg/kg i.v.)	Increase in peripheral vasodilation (A.femoralis) ([4]; 10.0 mg/kg i.v.)	Increase in coronary vasodilation ([5]; 5.6 mg/kg i.v.)	inhibition (spasmolysis in situ) ([7]; 5.6 mg/kg i.v.) [%]	inhibition (spasmolysis in situ) ([7]; 10.0 mg/kg i.v.) [%]	inhibition (spasmolysis in situ) ([7]; 17.8 mg/kg i.v.) [%]	also measured
CCN(CC)CCOc1c(C)cc(C(=O)CC(c2ccccc2)c2ccccc2)cc1C [BC 58, 4-[2-(N,N-diethylamino)-ethoxy]-3,5-dimethyl-β,β-diphenylpropiophenone]	60	1900	approx. 30 mm Hg	approx. 30 mm Hg	approx. 40 mm Hg	0.044 (≈ 0.102 µM)	approx. 400 ml × min	approx. 800 ml × min	approx. 2,200 ml × min	approx. 680 ml × min	55	67	88	duration of the effect (peripheral vasodilation) ([4]; versus papaverine, i.v.): longer duration of the effect; Increase in coronary vasodilation ([5]; 3.16 mg/kg i.v.): approx. 350 ml × min; LD50 [6]: 54 mg/kg
Cc1cc(C(=O)CC(c2ccccc2)c2ccccc2)cc(C)c1OCCN(C)C [BC 77, 4-[2-(N,N-dimethylamino)-ethoxy]-3,5-dimethyl-β,β-diphenylpropiophenone]						0.79 (≈ 1.97 µM)								
Cc1cc(C(=O)CC(c2ccccc2)c2ccccc2)cc(C)c1OCCN(C(C)C)C(C)C [BC 79, 4-[2-(N,N-diisopropylamino)-ethoxy]-3,5-dimethyl-β,β-diphenylpropiophenone]						0.28 (≈ 0.612 µM)								
CC[N+](C)(CC)CCOc1c(C)cc(C(=O)CC(c2ccccc2)c2ccccc2)cc1C [BC 96 a]	7.93	1280												
CC[N+](CC)(CCOc1c(C)cc(C(=O)CC(c2ccccc2)c2ccccc2)cc1C)Cc1ccccc1 [BC 96 c]	10 to 12	~2000												
COc1ccc(Cc2nccc3cc(OC)c(OC)cc23)cc1OC [Papaverine, reference compound]	44		approx. 25 mm Hg	approx. 35 mm Hg	approx. 40 mm Hg	0.79 (≈ 2.33 µM)	approx. 100 ml × min	approx. 250 ml × min	approx. 180 ml × min	approx. 75 ml × min	5	8	57	LD50 mouse p.o. [8]: 343 mg/kg; LD50 rat i.v. ([9]; i.v.): 18 mg/kg; LD50 rat p.o. ([9]; p.o.): 325 mg/kg

From US4140770A, “Benzoylethers and processes for their production” (A. Nattermann & Cie. GmbH, priority 1976, dated 1979)
